Data on four molecules can be found in US9273095B2, “Antibiotic peptide and preparation method therefor and application therefor” (priority 2011, dated 2016).

Values after ≈ are worked out from the molar mass of the structure shown. Read-outs that look alike come from different tables or passages of the source. Marks after values point to notes of the source that are not given here. Non-standard residues stand in square brackets, D forms with d. Residues, ends and D or L forms follow the SMILES beside them.

One data set has as its system aspergillus flavous. Kind of data set: microbe, parasite or virus in culture. Type of data set: cell-based. To be noted: for MIC: JLC 30784 aspergillus flavous, read-out: Minimal inhibitory concentration. As to the method: (§1) • (1) Test strains: monilia albicans (candida albicans), candida glabrata, candida krusei, candida tropicalis, aspergillus fumigatus and flavous. Antimicrobial peptides PL-13 (SEQ ID NO: 1) under test are supplied by Jiangsu ProteLight Pharmaceutical & Biotechnology Co., LTD. […] Activation of bacterial strains is conducted at a humidity level of 60% and 25° C. (for aspergillus) or 37° C. (for candida). (2) 0.9% stroke-physiological saline solution comprising 0.5% Tween-80 is used to prepare bacterial suspension for experiment. Hemocytometer is utilized to adjust concentration of the bacterial suspension to 1-3×10^6 CFU/ml (0.5 McFarland units) to make stock solution in reserve at -20° C. During the sensitivity test, the RPMI-1640 liquid medium is diluted 1000 times to 1-3×10^3 CFU/ml. (3) The RPMI-1640 liquid is utilized as diluent to 10-fold dilute stock solution of peptides. […] The eleventh orifice is used as living control orifice, while the twelfth one as blank control. (4) The RPMI-1640 liquid is utilized as diluent to 10-fold dilute stock solution of FCZ and ICZ. […] Ditto for other operations.

For a further data set, the system named is candida glabrata. Kind of data set: microbe, parasite or virus in culture. It counts as cell-based. To be noted: for MIC: Nakaseomyces glabratus, read-out: Minimal inhibitory concentration. As to the method:
as §1

For the next data set, the system named is aspergillus fumigatus. Kind of data set: microbe, parasite or virus in culture. It counts as cell-based. To be noted: for MIC: JLC 30506 aspergillus fumigatus, read-out: Minimal inhibitory concentration. Here is the method:
as §1

A further data set has as its system candida albicans. Nature of the data set: microbe, parasite or virus in culture. It counts as cell-based. To be noted: for MIC: Candida albicans, read-out: Minimal inhibitory concentration. As to the method:
as §1

In a further data set the test system is candida tropicalis. Nature of the data set: microbe, parasite or virus in culture. To be noted: for MIC: Candida tropicalis, read-out: Minimal inhibitory concentration. Type of data set: cell-based. As to the method: as §1
For a further data set, the system named is candida krusei. Nature of the data set: microbe, parasite or virus in culture. It counts as cell-based. To be noted: for MIC: Pichia kudriavzevii, read-out: Minimal inhibitory concentration. From the text:
• (1) Test strains: monilia albicans (candida albicans), candida glabrata, candida krusei, candida tropicalis, aspergillus fumigatus and flavous. (2) Quality control strains: candida krusei JLC30366 (ATCC6258). Antimicrobial peptides PL-13 (SEQ ID NO: 1) under test are supplied by Jiangsu ProteLight Pharmaceutical & Biotechnology Co., LTD. […] (1) The bacterial strains which preserved on PDA slant are respectively inoculated onto PDA plate and slant medium. Activation of bacterial strains is conducted at a humidity level of 60% and 25° C. (for aspergillus) or 37° C. (for candida). (2) 0.9% stroke-physiological saline solution comprising 0.5% Tween-80 is used to prepare bacterial suspension for experiment. Hemocytometer is utilized to adjust concentration of the bacterial suspension to 1-3×10^6 CFU/ml (0.5 McFarland units) to make stock solution in reserve at -20° C. During the sensitivity test, the RPMI-1640 liquid medium is diluted 1000 times to 1-3×10^3 CFU/ml. (3) The RPMI-1640 liquid is utilized as diluent to 10-fold dilute stock solution of peptides. […] The eleventh orifice is used as living control orifice, while the twelfth one as blank control. (4) The RPMI-1640 liquid is utilized as diluent to 10-fold dilute stock solution of FCZ and ICZ. […] Ditto for other operations.

The test system of another data set is Bacillus dysenteriae. Nature of the data set: Therapeutic test of oral preparation on mice with systemic infection, survival time. It counts as in vivo, ICR mice. To be noted: 80 mg/kg gavage three times a day for seven days, n = 10. As to the method: (§2) There are 30 male and 30 female ICR mice with the weight ranging from 18 g to 22 g. […] With trinitrophenal marking method, all the mice are raised with ordinary animal feeds in the ordinary animal houses and they can drink water freely. Alternating of light and dark is conducted every 12 hours.
(§3) 2. Infected Strains: Escherichia and Bacillus dysenteriae
(§4) (1) The preparation of bacterial suspension is the same as above.
(§5) (2) The Escherichia suspension cultured overnight is diluted to 1×10^7CFU/ml. The Bacillus dysenteriae suspension cultured overnight is diluted to 1×10^5CFU/ml. They are all applied in reserve.
(§6) (3) Except the blank control group, every other mouse is injected with 0.2 ml Escherichia suspension with the concentration of 1×10^7CFU/ml or 0.2 ml Bacillus dysenteriae suspension with the concentration of 1×10^5CFU/ml intraperitoneally to make model.
(§7) (4) Administration: The drugs are administered according to mice′ weight right after the model is ready. All the groups excepting the blank and the infected negative control groups are administered by gavaging with different dosage of drugs three times a day successively for seven days, and they are observed for fourteen days.
(§8) (5) Observe death of the animals and record their survival time.

For the next data set, the system named is Escherichia. Described as above. Type of data set: in vivo, ICR mice. To be noted: 80 mg/kg gavage three times a day for seven days, n = 10. As to the method:
as §2, §3, §4, §5, §6, §7, §8

Data set [1] has as its system red cell suspension from healthy volunteers. Nature of the data set: Hemolytic activity test. Type of data set: cell-based, human. To be noted: for Hemolytic activity, absorbancy (OD value) at 570 nm: 4 hours at 37° C., OD higher than 0.1 is hemolytic, n = 3. As to the method:
(1) Samples are serial diluted with sterile PBS to 1000, 500, 250, 125, 64, 32, 16, 8, 4 μg/ml in turn and spread in 96-well plates, 100 μl per orifice.
(2) We use distilled water as positive control, sterile PBS as negative control and blank orifice with 200 μl PBS solution added. Each concentration above is made in triplicate.
(3) We take 3 ml whole blood from healthy volunteers and washed it with sterile PBS three times to prepare fresh 2% concentration red cell suspension. Then we added 100 μl red cell suspension into each orifice and made them cultured for 4 hours at 37° C. in the incubator. After centrifuged by plate-swashing centrifuge, the supernatant liquid is collected and measured absorbancy (OD value) at a wavelength of 570 nm. Then we compared the hemolytic efficiency of these concentrations.
(4) According to the documents standard, OD value which is higher than 0.1 is hemolytic concentration.

In a further data set the test system is Enterococcus faecium. Kind of data set: microbe, parasite or virus in culture. It counts as cell-based. Here is the method:
(§9) The experimental strains are 37 standard strains preserved in lab and clinical isolated bacteria, including drug-resistant bacteria and quality-control bacteria selecting Staphylococcus aureus ATCC29213, Enterococcus faecalis ATCC29212, Escherichia coli ATCC25922, Pseudomonas aeruginosa ATCC27853 and klebsiella pneumoniae ATCC700603.
(§10) (1) Sensitivity test is conducted with two-fold agar dilution method and Denlay multipoint inoculator. Test bacteria are cultured with nutrient broth and brain heart infusion.
(§11) (2) The drug is double diluted into different concentration with MH broth after dissolved and then placed in the plate respectively.
(§12) (4) After solidification of the culture medium in the plate, test bacteria (10^4CFU/point) are inoculated by multipoint inoculator and cultured for 18 hours at constant 35° C. Then observe the results.

Data set [2] concerns Staphylococcus epidermidis. Kind of data set: microbe, parasite or virus in culture. It counts as cell-based. Here is the method: as §9, §10, §11
(§13) (3) After dissolved, MH agar culture medium are injected into the plate with drug quantitatively and mixed to make the final concentration of drug are 0.03, 0.06, 0.125, . . . , 128 μg/ml respectively.
as §12

The test system of data set [3] is Acinetobacter calcoaceticus. Kind of data set: microbe, parasite or virus in culture. It counts as cell-based. As to the method:
as §9, §10, §11, §13, §12

[4] abbreviates: JLC 30883 aspergillus fumigatus.

Regarding `CCC(C)n1ncn(-c2ccc(N3CCN(c4ccc(OCC5COC(Cn6cncn6)(c6ccc(Cl)cc6Cl)O5)cc4)CC3)cc2)c1=O` (stereo not drawn) [ICZ, Itraconazole, reference compound], the MIC is 0.125 µg/mL (≈ 0.177 µM) in the data set on aspergillus flavous; 0.0625 µg/mL (≈ 0.0886 µM) in the data set with candida glabrata (JLC 30367 candida glabrata); 0.03 µg/mL (≈ 0.0425 µM) in the data set with candida glabrata (JLC 31512 candida glabrata); 0.125 µg/mL (≈ 0.177 µM) in the data set with aspergillus fumigatus; 0.03 µg/mL (≈ 0.0425 µM) in the data set on candida albicans (JLC 33659 candida albicans); 0.0625 µg/mL (≈ 0.0886 µM) in the data set on candida albicans (JLC 33660 candida albicans). Further, the MIC with candida tropicalis (JLC 31379 candida tropicalis) came out at 0.03 µg/mL (≈ 0.0425 µM); in the data set with candida tropicalis (JLC 31384 candida tropicalis), 0.03 µg/mL (≈ 0.0425 µM); in the data set with candida krusei (JLC 30366 candida krusei) it was 0.25 µg/mL (≈ 0.354 µM); in the data set with candida krusei (JLC 30383 candida krusei), 0.25 µg/mL (≈ 0.354 µM). Further, the Minimal inhibitory concentration with aspergillus flavous (JLC 40437 aspergillus flavous) and in the data set with aspergillus fumigatus (setting [4]) was 0.125 µg/mL (≈ 0.177 µM) throughout.

`CCS(=O)(=O)CCn1c([N+](=O)[O-])cnc1C` [Tinidazole]: the Mean survival Time was 7.0* day in the data set on Bacillus dysenteriae (observed fourteen days) and 7.5* day with Escherichia (observed fourteen days). Moreover, the “Mortality of mice in different days after infection” value with Bacillus dysenteriae (day 4) came out at 2; in the data set with Bacillus dysenteriae (day 5), 1; in the data set with Bacillus dysenteriae (day 6) it was 2; with Bacillus dysenteriae (day 7), 2; in the data set with Bacillus dysenteriae (day 8), 1; in the data set with Bacillus dysenteriae (day 9), 1. In addition, the “Mortality of mice in different days after infection” value came to 1 in the data set with Escherichia (day 4); 2 in the data set on Escherichia (day 5); 2 in the data set with Escherichia (day 6); 1 in the data set on Escherichia (day 7); 1 in the data set on Escherichia (day 8); 2 in the data set with Escherichia (day 9).

`CC(=O)N[C@H](Cc1ccccc1)C(=O)N[C@H](CCCCN)C(=O)N[C@H](CCCCN)C(=O)N[C@H](CC(C)C)C(=O)N[C@H](CCCCN)C(=O)N[C@H](CCCCN)C(=O)N[C@H](CCCCN)C(=O)N[C@H](Cc1ccccc1)C(=O)N[C@H](CO)C(=O)N[C@H](CCCCN)C(=O)N[C@H](CC(C)C)C(=O)N[C@H](Cc1c[nH]c2ccccc12)C(=O)N[C@H](CC(N)=O)C(=O)N[C@H](Cc1c[nH]c2ccccc12)C(=O)N[C@H](CCCCN)C(N)=O` [PL-34] (Ac-[dF][dK][dK][dL][dK][dK][dK][dF][dS][dK][dL][dW][dN][dW][dK]-NH2): the Minimal inhibitory concentration with aspergillus flavous was greater than 64 µg/mL; in the data set on candida glabrata, 32 µg/mL (≈ 15.6 µM); in the data set on aspergillus fumigatus, greater than 64 µg/mL; in the data set on candida albicans, 16 µg/mL (≈ 7.8 µM); in the data set with candida tropicalis, 4 µg/mL (≈ 1.95 µM); in the data set with candida krusei, 8 µg/mL (≈ 3.9 µM). For the same molecule, the “Hemolytic activity, absorbancy (OD value) at 570 nm” value in data set [1] (peptide 7.8125 μg/ml) stood at 0.032; in [1] (peptide 15.625 μg/ml), 0.041; in data set [1] (peptide 31.25 μg/ml) it was 0.054; in data set [1] (peptide 62.5 μg/ml), 0.061; in [1] (peptide 125 μg/ml), 0.073; in data set [1] (peptide 250 μg/ml) it was 0.087. The “Hemolytic activity, absorbancy (OD value) at 570 nm” value was 0.135 in data set [1] (peptide 500 μg/ml) and 0.317 in data set [1] (peptide 1000 μg/ml). In addition, in data set [1] (summary of Table 9), the “hemolytic toxicity (in words)” value is “little hemolytic toxicity”. In addition, the MIC (against Enterococcus faecium; in [2] (08-17 (MSSE) Meticillin susceptible staphylococcus epidermidis); in [2] ((MRSE) Methicillin-resistant Staphylococcus epidermidis ATCC12228); in data set [3]) was 1.3 µM (≈ 2.67 µg/mL) throughout.

Take `OC(Cn1cncn1)(Cn1cncn1)c1ccc(F)cc1F` [FCZ, Fluconazol, reference compound]: the MIC in the data set with aspergillus flavous is greater than 64 µg/mL; in the data set on candida glabrata (JLC 30367 candida glabrata), 2 µg/mL (≈ 6.53 µM); in the data set with candida glabrata (JLC 31512 candida glabrata), 1 µg/mL (≈ 3.27 µM); in the data set on aspergillus fumigatus, greater than 64 µg/mL; in the data set with candida albicans (JLC 33659 candida albicans), 0.25 µg/mL (≈ 0.816 µM); in the data set on candida albicans (JLC 33660 candida albicans) it was 0.25 µg/mL (≈ 0.816 µM). Further, the MIC in the data set with candida tropicalis (JLC 31379 candida tropicalis) was determined as 0.5 µg/mL (≈ 1.63 µM); with candida tropicalis (JLC 31384 candida tropicalis) it was 0.25 µg/mL (≈ 0.816 µM); in the data set with candida krusei (JLC 30366 candida krusei) it was 16 µg/mL (≈ 52.2 µM); in the data set with candida krusei (JLC 30383 candida krusei) it was 8 µg/mL (≈ 26.1 µM). The Minimal inhibitory concentration in the data set on aspergillus flavous (JLC 40437 aspergillus flavous) and in the data set on aspergillus fumigatus (setting [4]) was greater than 64 µg/mL each time.
